Experiment in all cases: biochemical
Format in all cases: binding

One assay deals with DRB1*1302 (Homo sapiens, UniProt P01903+P01911, A100E/A169T/K41T/L162R/M171V/P40S/Q125H/Q178H/Q39Y/Q99D/R42S/S66N/T262R/V115G/W38E/Y61H). To be noted: read-out: IC50 nM to purified HLA DRB1*1302.
Another assay addresses T1, DRB4*0101 (Homo sapiens, UniProt P01903+P13762, G164S).
T1 construct: made in house; host or cells: EBV-transformed homozygous human B cell lines, transfected fibroblasts or single-allele 721.221 transfectants

The next assay deals with T2, DRB1*0101 (Homo sapiens, UniProt P01903+P01911, A100R/D57E/F55L/F60I/F76Y/I96L/L162R/M171V/P40L/Q125E/R42F/V115G/Y59C).
T2 construct: made in house; host or cells: EBV-transformed homozygous human B cell lines, transfected fibroblasts or single-allele 721.221 transfectants

For a further assay, the target named is T3, DRB1*1501 (Homo sapiens, UniProt P01903+P01911).
T3 construct: made in house; host or cells: EBV-transformed homozygous human B cell lines, transfected fibroblasts or single-allele 721.221 transfectants
To be noted: read-out: IC50 nM to purified HLA DRB1*1501.

In another assay the target is T4, DRB1*0401 (Homo sapiens, UniProt P01903+P01911, A100K/A169T/F76Y/I96L/K127E/L162R/M171V/N62H/P40V/Q125Y/R42H/S133A/S149N/S66Y/V115G/V209L/W38E).
T4 construct: made in house; host or cells: EBV-transformed homozygous human B cell lines, transfected fibroblasts or single-allele 721.221 transfectants
To be noted: read-out: IC50 nM to purified HLA DRB1*0401.

The target of a further assay is DRB1*0404 (Homo sapiens, UniProt P01903+P01911, A100R/A169T/F76Y/I96L/K127E/L162R/M171V/N62H/P40V/Q125Y/R42H/S133A/S149N/S66Y/V209L/W38E). To be noted: IC50 nM to purified HLA DRB1*0404.
A further assay concerns the target T5, DRB1*0301 (Homo sapiens, UniProt P01903+P01911, A100K/A102G/A103R/A169T/F55Y/I96L/K41T/L162R/M171V/P40S/Q125H/Q178H/Q39Y/R42S/S66N/T106N/T262R/W38E/Y61H).
T5 construct: made in house; host or cells: EBV-transformed homozygous human B cell lines, transfected fibroblasts or single-allele 721.221 transfectants

Where [1] appears, read: IC50 nM to purified HLA DRB4*0101.
Setting [2] is: IC50 nM to purified HLA DRB1*0101.
[3] abbreviates: IC50 nM to purified HLA DRB4*0101, Table 4.
Where [4] appears, read: IC50 nM to purified HLA DRB1*0101, Table 4.

Where two headings read alike, the source gives them in different places. Where no end group is shown, it is not given here.

DRB1*1302, sequence (P01903 26-254 limits assumed, other chains not shown): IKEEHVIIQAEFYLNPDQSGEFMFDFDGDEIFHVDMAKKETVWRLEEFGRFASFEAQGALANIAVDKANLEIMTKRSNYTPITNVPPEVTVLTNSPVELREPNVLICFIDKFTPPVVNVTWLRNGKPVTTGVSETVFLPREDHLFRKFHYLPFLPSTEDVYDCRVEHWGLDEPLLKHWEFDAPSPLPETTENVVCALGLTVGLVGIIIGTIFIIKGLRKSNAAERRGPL
T5 sequence (P01903 26-254, other chains not shown): as the sequence (P01903 26-254 limits assumed, other chains not shown) above

Broadly, the IC50 is the concentration that gives 50% inhibition. Take `CC[C@H](C)[C@H](NC(=O)[C@H](CCCNC(=N)N)NC(=O)[C@@H](NC(=O)[C@H](CO)NC(=O)[C@H](CC(N)=O)NC(=O)[C@H](CC(=O)O)NC(=O)[C@H](CCCCN)NC(=O)[C@H](CO)NC(=O)[C@H](Cc1ccc(O)cc1)NC(=O)[C@@H](NC(=O)[C@H](C)NC(=O)[C@@H](N)Cc1c[nH]c2ccccc12)C(C)C)[C@@H](C)CC)C(=O)NCC(=O)N[C@@H](CO)C(=O)N[C@@H](CCCCN)C(=O)O` [Flu.NA.77]: the IC50 on DRB1*1302 came to 36 nM; on DRB4*0101 (setting [1]), 19500 nM; at DRB1*0101 (setting [2]), 5400 nM; on DRB1*1501, 642 nM; at DRB1*0401 it was 1600 nM.

`CC[C@H](C)[C@H](NC(=O)[C@H](CCC(N)=O)NC(=O)[C@H](Cc1ccc(O)cc1)NC(=O)[C@H](CCC(=O)O)NC(=O)[C@H](CC(C)C)NC(=O)[C@@H](N)CC(N)=O)C(=O)NCC(=O)N[C@@H](Cc1ccc(O)cc1)C(=O)N[C@H](C(=O)N[C@@H](CS)C(=O)N[C@@H](CO)C(=O)NCC(=O)N[C@H](C(=O)N[C@@H](Cc1ccccc1)C(=O)NCC(=O)O)C(C)C)[C@@H](C)CC` [Flu.NA.289]: the 50% inhibitory concentration (IC50) at DRB1*1302 was 41 nM; at DRB4*0101 (setting [1]), 354 nM; against DRB1*0101 (setting [2]) it was 1130 nM; at DRB1*1501 it was 13 nM; at DRB1*0401, 975 nM.

Take `CC[C@H](C)[C@H](NC(=O)[C@H](CO)NC(=O)[C@H](CC(N)=O)NC(=O)[C@@H](N)CCC(N)=O)C(=O)N[C@H](C(=O)N[C@H](C(=O)N[C@@H](CCC(=O)O)C(=O)N[C@@H](CCCNC(=N)N)C(=O)N[C@@H](CCSC)C(=O)N[C@H](C(=O)N[C@@H](CC(C)C)C(=O)N[C@@H](CO)C(=O)N[C@@H](C)C(=O)N[C@@H](Cc1ccccc1)C(=O)N[C@@H](CC(=O)O)C(=O)O)C(C)C)[C@@H](C)CC)[C@@H](C)O` [Flu.NP.61]: the IC50 at DRB4*0101 (read-out: IC50 nM to purified HLA DRB4*0101) is 39 nM; at DRB1*1501 (Table 4), 1200 nM; at DRB1*1501 it was 1200 nM; at DRB1*0401, 430 nM.

For the compound `CSCC[C@H](NC(=O)[C@H](CCCNC(=N)N)NC(=O)[C@H](CCSC)NC(=O)[C@@H](N)C(C)C)C(=O)NCC(=O)N[C@@H](CC(=O)O)C(=O)N[C@@H](CC(C)C)C(=O)N[C@@H](Cc1c[nH]cn1)C(=O)N[C@@H](CO)C(=O)N[C@@H](CC(C)C)C(=O)N[C@@H](CCC(N)=O)C(=O)N[C@@H](CC(N)=O)C(=O)N[C@@H](CCCNC(=N)N)C(=O)N[C@@H](CC(N)=O)C(=O)NCC(=O)O` [Flu.NS2.125], the IC50 came out at 1370 nM at DRB1*1302; 8820 nM at DRB4*0101 (setting [1]); 249 nM against DRB1*0101 (setting [2]); 372 nM on DRB1*1501; 448 nM on DRB1*0401.

Regarding `CC[C@H](C)[C@H](NC(=O)[C@H](CC(C)C)NC(=O)[C@H](Cc1c[nH]c2ccccc12)NC(=O)[C@@H](NC(=O)[C@@H](N)C(C)C)C(C)C)C(=O)N[C@@H](CCCCN)C(=O)N[C@@H](CCCCN)C(=O)N[C@@H](CC(N)=O)C(=O)N[C@@H](CO)C(=O)N[C@H](C(=O)N[C@@H](Cc1ccc(O)cc1)C(=O)N1CCC[C@H]1C(=O)N[C@H](C(=O)N[C@H](C(=O)N[C@@H](CCCCN)C(=O)N[C@@H](CCCNC(=N)N)C(=O)O)[C@@H](C)CC)[C@@H](C)O)[C@@H](C)O` [Flu.HA.163], the IC50 on DRB1*1302 came to 14 nM; against DRB4*0101 (setting [1]), 1660 nM; at DRB1*0101 (setting [2]) it was 464 nM; at DRB1*1501, 99 nM.

Consider `CC[C@H](C)[C@H](NC(=O)[C@@H]1CCCN1C(=O)[C@H](CCCNC(=N)N)NC(=O)[C@@H](NC(=O)[C@H](CCCCN)NC(=O)[C@H](CC(C)C)NC(=O)[C@H](Cc1c[nH]c2ccccc12)NC(=O)[C@H](CCC(=O)O)NC(=O)[C@H](CCSC)NC(=O)[C@H](CC(C)C)NC(=O)[C@H](C)NC(=O)[C@@H](N)CCC(=O)O)[C@@H](C)O)C(=O)N[C@@H](CC(C)C)C(=O)N[C@@H](CO)C(=O)N1CCC[C@H]1C(=O)O` [Flu.M1.43], for which the IC50 at DRB1*1302 is 380 nM; against DRB4*0101 (setting [1]), 5510 nM; at DRB1*0101 (setting [2]), 9.5 nM; at DRB1*1501, 18 nM.

On to `CSCC[C@H](NC(=O)[C@H](CC(C)C)NC(=O)[C@@H](NC(=O)[C@H](CCCNC(=N)N)NC(=O)[C@H](Cc1c[nH]cn1)NC(=O)[C@@H]1CCCN1C(=O)[C@H](CO)NC(=O)[C@H](CCCNC(=N)N)NC(=O)[C@H](CC(=O)O)NC(=O)[C@H](CCCCN)NC(=O)[C@@H](NC(=O)[C@@H](NC(=O)CNC(=O)[C@@H](N)CC(N)=O)[C@@H](C)O)C(C)C)[C@@H](C)O)C(=O)N[C@@H](CO)C(=O)O` [Flu.NA.126], for which the half-maximal inhibitory concentration (IC50) at DRB1*1302 was 7930 nM; against DRB4*0101 (setting [1]) it was 8880 nM; against DRB1*0101 (setting [2]), 581 nM; on DRB1*0401, 17900 nM.

Turning to `CC[C@H](C)[C@H](N)C(=O)N[C@@H](CC(C)C)C(=O)N[C@@H](CO)C(=O)N[C@H](C(=O)N[C@@H](Cc1ccc(O)cc1)C(=O)N[C@@H](CO)C(=O)N[C@H](C(=O)N[C@H](C(=O)N[C@@H](C)C(=O)N[C@@H](CO)C(=O)N[C@@H](CO)C(=O)N[C@@H](CC(C)C)C(=O)N[C@@H](C)C(=O)N[C@@H](CC(C)C)C(=O)N[C@@H](C)C(=O)N[C@H](C(=O)O)[C@@H](C)CC)C(C)C)[C@@H](C)O)[C@@H](C)CC` [Flu.HA.532], the IC50 at DRB1*1302 is 7.6 nM; against DRB4*0101 (setting [1]), 824 nM; on DRB4*0101 (setting [3]), 824 nM; at DRB1*0101 (setting [2]), 11 nM; against DRB1*0101 (setting [4]) it was 11 nM; on DRB1*1501 (Table 4) it was 20 nM. Moreover, the values for the IC50 on DRB1*1501, at DRB1*0401 (Table 4) and on DRB1*0401 were 20 nM, 91 nM and 91 nM, respectively.

For `CC[C@H](C)[C@H](N)C(=O)N[C@@H](Cc1ccc(O)cc1)C(=O)N[C@@H](CCC(N)=O)C(=O)N[C@H](C(=O)N[C@@H](CC(C)C)C(=O)N[C@@H](CO)C(=O)N[C@H](C(=O)N[C@@H](Cc1ccc(O)cc1)C(=O)N[C@@H](CO)C(=O)N[C@H](C(=O)N[C@H](C(=O)N[C@@H](C)C(=O)N[C@@H](CO)C(=O)N[C@@H](CO)C(=O)N[C@@H](CC(C)C)C(=O)N[C@@H](C)C(=O)O)C(C)C)[C@@H](C)O)[C@@H](C)CC)[C@@H](C)CC` [Flu.HA.529], the IC50 at DRB1*1302 stood at 13 nM; against DRB4*0101 (setting [1]), 18 nM; at DRB4*0101 (setting [3]), 18 nM; on DRB1*0101 (setting [2]), 55 nM; against DRB1*0101 (setting [4]) it was 55 nM; at DRB1*1501 (Table 4), 4.7 nM. The IC50 was determined as 4.7 nM at DRB1*1501, 89 nM at DRB1*0401 (Table 4) and 89 nM on DRB1*0401.

As for `CC[C@H](C)[C@H](NC(=O)[C@H](CC(C)C)NC(=O)[C@H](CCCNC(=N)N)NC(=O)CNC(=O)[C@@H](N)CCC(=O)O)C(=O)N[C@@H](CCC(N)=O)C(=O)N[C@@H](CC(N)=O)C(=O)N[C@@H](CO)C(=O)N[C@H](C(=O)N[C@H](C(=O)N[C@H](C(=O)N[C@@H](CCC(=O)O)C(=O)N[C@@H](CCCNC(=N)N)C(=O)N[C@@H](CCSC)C(=O)N[C@H](C(=O)O)C(C)C)[C@@H](C)CC)[C@@H](C)O)[C@@H](C)CC` [Flu.NP.56], the IC50 was determined as 55 nM at DRB1*1302 and 15 nM at DRB4*0101 (setting [1]).

Turning to ISGVKLESIGIYQILSI [Flu.HA.519], the 50% inhibitory concentration (IC50) on DRB1*1302 came out at 408 nM; against DRB4*0101 (setting [1]), 16 nM; on DRB1*1501 it was 9.2 nM; on DRB1*0401 it was 3110 nM.

Regarding PVHFRNQVKIRRRVD [Flu.PB2.135], the IC50 on DRB1*1302 turned out to be 359 nM; against DRB1*0404, 5980 nM; against DRB1*0101 (setting [2]), 2970 nM; against DRB1*0301, 458 nM; at DRB1*0401, 1300 nM.
